Assay results taken from patent publication US6054258A, “Photographic elements containing high-boiling esters” (Eastman Kodak Company, priority 1998, dated 2000).
In brackets after ≈: the same amount, converted by molar mass.

How the values were obtained:
Type in all cases: physicochemical
[1] = Water solubility from light scattering at 500 nm of dispersions of the high-boiling solvent in water
Protocol: (§1) As noted earlier, high-boiling solvents are desired that have low water solubility and low-to-moderate viscosity and that provide suitably bathochromic dye hues, i.e. hues of suitably long wavelengths. In this example, these properties are evaluated for comparison high-boiling solvents known in the art and for high-boiling solvents of this invention.
Water solubilities were obtained from plots of light scattering at 500 nm of dispersions of the high-boiling solvent in water versus concentration. The light scattering density goes to zero at the solubility limit, when dispersions of high-boiling solvent are diluted. […] Viscosities reported in Table I were measured using a Brookfield cone/plate viscometer. Solvents of high polarity and/or polarizability are often needed to provide suitably bathochromic hues for the types of dyes commonly encountered in color photographic materials. Dye C1, whose structure is provided after Table I, is representative of such dyes. The visible absorption maxima (Lambda max) values for C1, measured with a Perkin Elmer Lambda 2S spectrophotometer, are provided in Table I as measure of solvent polarity/polarizability.

[2] = Visible absorption maximum (Lambda max) of Dye C1 in the solvent, measure of solvent polarity/polarizability; conditions: for Lambda max of Dye C1: Dye C1 in the high-boiling solvent, Perkin Elmer Lambda 2S spectrophotometer; for Lambda max of Dye C1 (in words): relative to B1 and B4; for polarity/polarizability (in words): relative to B1
Protocol: as §1, with “invention. Results are summarized in Table I. Structures of the comparative high-boiling solvents are provided after Table I.” for “invention.”
(§2) Water solubilities were obtained from plots of light scattering at 500 nm of dispersions of the high-boiling solvent in water versus concentration. The light scattering density goes to zero at the solubility limit, when dispersions of high-boiling solvent are diluted. Values of log P calculated using MEDCHEM version 3.54 are also given in Table I and serve as rough indicators of water solubility. Viscosities reported in Table I were measured using a Brookfield cone/plate viscometer. Solvents of high polarity and/or polarizability are often needed to provide suitably bathochromic hues for the types of dyes commonly encountered in color photographic materials. Dye C1, whose structure is provided after Table I, is representative of such dyes. The visible absorption maxima (Lambda max) values for C1, measured with a Perkin Elmer Lambda 2S spectrophotometer, are provided in Table I as measure of solvent polarity/polarizability.

[3] = Viscosity measured using a Brookfield cone/plate viscometer
Protocol: as §1, with “invention. Results are summarized in Table I. Structures of the comparative high-boiling solvents are provided after Table I.” for “invention.”
as §2

SMILES	solubility [1] [µg/mL]	Lambda max of Dye C1 [2] [nm]	Lambda max of Dye C1 (in words) [2]	Viscosity [3] [centipoise]	polarity/polarizability (in words) [2]
O=C(OCCCc1ccccc1)c1ccccc1 [A1]	5.5 (≈ 22.9 µM)	673	relatively close to those of B1 and B4	15	
CC(C)(COC(=O)c1ccccc1)Cc1ccccc1 [A2]		668	relatively close to those of B1 and B4	99	
Cc1ccc(C(=O)OCCCc2ccccc2)cc1 [A3]	3.5 (≈ 13.8 µM)	670	relatively close to those of B1 and B4	22	
CCCCOC(=O)c1ccccc1C(=O)OCCCC [B1, dibutyl phthalate]	9.4 (≈ 33.8 µM)	674		17	
CCCCOC(=O)CCCCCCCCC(=O)OCCCC [B2]	0.8 (≈ 2.54 µM)	658		9	reduced polarity/polarizability relative to B1
CCCCC(CC)COC(=O)C1CCCCC1 (stereo not drawn) [B3]		661		6	reduced polarity/polarizability relative to B1
O=C(OCCc1ccccc1)c1ccccc1 [B4]	10 (≈ 44.2 µM)	674		14	
